Data reported in ChEMBL document CHEMBL1123523, “Oxidation of 5-hydroxytryptamine and 5,7-dihydroxytryptamine. A new oxidation pathway and formation of a novel neurotoxin” (J Med Chem, 1986).

These compounds were tested on Mus musculus (assay: Compound was tested for neurotoxic property after intracranial administration in mice). Settings: in vivo, other.
Assay type: ADME, organism-based

SMILES | LD50 [µg]
NCCc1c[nH]c2c1C(=O)C(=O)C=C2O | 20
NCCc1cc(O)c(O)cc1N | 50
CC(N)Cc1cc(O)c(O)cc1N (stereo unspecified) | 45
NCCc1c[nH]c2c(O)cc(O)cc12 | 55
NCCc1cc(O)c(O)cc1O [OXIDOPAMINE] | 80

Species: Mus musculus
Test: Compound was tested for lowering the norepinephrine levels in mouse brain expressed as percent of control values
Assay type: functional
Settings: not given

SMILES | Activity [%]
NCCc1c[nH]c2c1C(=O)C(=O)C=C2O | 87
